The source of these data is US20250333376A1, “CRYSTAL FORMS OF BMX AND PREPARATION THEREOF” (Novelwise Pharmaceutical Corporation, priority 2024, published 2025).

Common to all, as to assay type: physicochemical
Series [1] in a line: Hygroscopicity determination by DVS. As to the method: The hygroscopicity of the Crystal Form A of Compound BMX was determined using Surface Measurement Systems Ltd. DVS resolution equipment. The sample was loaded into balance pan, typically 10-30 mg, and equilibrated at 0% relative humidity (RH). When the material has dried, the RH is increased with 10% per step for 1 hour per increment, ending at 95% RH. After completion of the sorption cycle, the sample was dried using the same method. […] The software used for data collection is DVS Control Software for 21 CFR Part 11 v1.0.3.0. Data analysis is performed using DVS Standard Analysis Suite v7.2.0.9 (Standard).

A short description of series [2]: Photo stress stability, amorphous form versus Crystal Form A. The settings on record: for Degradation: 48 hours of exposure to photo-stress conditions (cool white fluorescent lamp and UV fluorescent lamp 320-400 nm). The source says:
The amorphous Form and the Crystal Form A of Compound BMX samples were exposed at a cool white fluorescent lamp that has an output similar to that specified by ISO 10977 and UV fluorescent lamp with a spectral distribution from 320 nm to 400 nm for evaluating the photo stress stability.

Series [3] can be described thus: Competitive slurry experiments to determine the most stable polymorphic form. The settings on record: competitive slurry in 2-propanol, XRPD. As to the method:
No material of Crystal Form C, D, or E was available since these could not be reproduced. The competitive slurry was performed using Crystal Forms B, […], F and poorly crystalline material, with 10 mg of each form being added in two 1 mL vials.
The competitive slurry experiment in 2-methyl tetrahydrofuran gave a clear solution and the experiment in 2-propanol gave a white slurry.

Series [4] is described as follows: Solubility of Crystal Form A in process solvents and aqueous buffer systems. Conditions: for solubility at 24 h: thermodynamic from solid. As to the method:
The solubility of this form was tested in the process solvents (Ethyl acetate and hexane) and in aqueous buffer systems. 100 mg of Crystal Form A of Compound BMX was weighed into 4 mL vials with 2 mL of the specified solvent/aqueous buffer system being added. These solutions were shaken at room temperature for 24 hours. The pH was monitored in time and remained in the correct range. Samples were filtered and diluted (5× in ACN/MeOH 1/1) and measured using H PLC. The concentration of the samples is determined using a calibration line.

The nature of series [5]: Stability test of Form B slurried in water.
The nature of series [6]: Stability of polymorphic forms stored at 40° C./75% RH for 4 days. As to the method:
Both Crystal Form A and Crystal Form D were found in different solvent combinations using different crystallization techniques. […] Crystal Form C was only observed once, being found in a slurry experiment at 50° C. in DMSO/Ethanol (60/40-%). […] All plates were stored at 40° C./75% RH for 4 days in order to determine the stability of the polymorphic forms.

The nature of series [7]: Solubility of amorphous material of Compound BMX by the shake flask method. The settings on record: for solubility at 24 h / solubility at 15 min: organic solvent or mixture, thermodynamic from solid, shake flask. As to the method: The solubility of amorphous material of Compound BMX was determined by the shake flask method. The amorphous material was obtained by dissolving 500 mg of the Crystal From A of Compound BMX in 10 mL dichloromethane, this solution was evaporated to dryness in vacuum conditions (0 mbar, RT).
The solvents for the solubility determination were selected based on the Principal Component Analysis (PCA) of properties, which means that some pharmaceutically unattractive solvents were included to create a better understanding of the parameter space. The Principal Component Analysis focusses on polarity, polarizability and hydrogen bonding.
Subsequently, the samples were filtered and diluted for LC analysis and the concentration is determined using a calibration line.

Where [8] appears, read: solvent Methyl-tert-butyl ether.

Values after ≈ are worked out from the molar mass of the structure shown. “Also recorded” adds a separate entry of the source. Read-outs that look alike come from different tables or passages of the source.

What is called Solubility is the concentration that dissolves in the medium under given conditions. Low values mean a poorly soluble substance, high ones a readily soluble substance. Usually solubility stands for how much of the substance goes into solution per volume. With `COc1ccc(COc2c(/C=C/C(=O)NO)ccc(OC)c2CC=C(C)C)cc1` [Crystal Form A], the “Mass uptake (DVS)” value in series [1] (0% to 95% RH, 10% per step, 1 hour per increment) stood at 0.035 wt %. Further, the “Hygroscopicity (in words)” value in series [1] (DVS) is on record as “non-hygroscopic; also recorded: not hygroscopic”. For the same molecule, the “Stability under humid conditions (XRPD, DSC/TGA, microscopy pre and post DVS)” value in series [1] (after DVS up to 95% RH) is “stable under these humid conditions”. The molecule further gave a Degradation in series [2] of 10%. Besides, the “Stability under stress conditions compared with the amorphous form” value in series [2] (photo-stress, 48 hours) is “significantly more stable than the amorphous form”. In addition, the “Most stable polymorphic form” value in series [3] is given as “most stable form”; in series [3] (listed as Cystal Form A), “thermodynamically most stable form”. The molecule also showed a Solubility in series [4] (Ethyl acetate, room temperature, 24 hours) of 20780 µg/mL (≈ 52.3 mM). Moreover, the solubility at 24 h came out at 10 µg/mL (≈ 0.0252 mM) in series [4] (FaSSIF, pH 6.5, fassif, pH 6.5, room temperature, 24 hours); 180 µg/mL (≈ 0.453 mM) in series [4] (FeSSIF, pH 5.8, fessif, pH 5.8, room temperature, 24 hours); 20800 µg/mL (≈ 52.3 mM) in series [4] (ethyl acetate, organic solvent or mixture, room temperature, 24 hours). Moreover, the “Solubility (in words)” value in series [4] (Hexane, water, FaSSGF, FASSIF and phosphate buffer pH 7.4) was “insoluble”. Besides, the “Changes in polymorphic form after solubility test (XRPD)” value in series [4] (all solvents/buffers of Table 6, 24 hours at room temperature) is listed as “No changes in polymorphic form were observed”.
Take `COc1ccc(COc2c(/C=C/C(=O)NO)ccc(OC)c2CC=C(C)C)cc1` [Crystal Form B]: the “Conversion on seeding with Crystal Form A” value in series [5] (seeds of Crystal Form A, slurrying at 50° C.) is recorded as “could not be converted into Crystal Form A”. Further, in series [5] (slurry in water), the “Stability in water (in words)” value is “very stable in water; also recorded: remained stable in water”. For the same molecule, the “Changes in XRPD on slurrying in water” value in series [5] (water, room temperature, 4 hours, 24 hours, 4 days and 7 days) is “No changes were observed in the XRPD”.
For `COc1ccc(COc2c(/C=C/C(=O)NO)ccc(OC)c2CC=C(C)C)cc1` [Crystal Form C], the “Stability of the polymorphic form” value in series [6] is “unstable and converted into Crystal Form D soon”; in series [6] (listed as Cystal Form C), “not a stable form and converted into polymorphic Crystal Form D”.
In series [2] (listed as amorphous form), `COc1ccc(COc2c(/C=C/C(=O)NO)ccc(OC)c2CC=C(C)C)cc1` [amorphous material of Compound BMX] registered a Degradation of 20%. The solubility at 24 h in series [7] (solvent 2-Ethly-1-butanol) was 8800 µg/mL (≈ 22.1 mM); in series [7] (solvent Anisole) it was 9700 µg/mL (≈ 24.4 mM); in series [7] (solvent Ethyl sulfoxide), 6900 µg/mL (≈ 17.4 mM); in series [7] (setting [8]), 3300 µg/mL (≈ 8.3 mM). Moreover, the solubility at 15 min in series [7] (solvent Acetonitrile) lay within 10000 to 33000 µg/mL (≈ 25.2 to 83 mM); in series [7] (solvent Dimethyl sulfoxide), 31000 to 94000 µg/mL (≈ 78 to 236 mM); in series [7] (solvent Ethyl butyl ketone) it was 10000 to 33000 µg/mL (≈ 25.2 to 83 mM); in series [7] (solvent Methanol) it was 31000 to 94000 µg/mL (≈ 78 to 236 mM). The USP classification result was “Slightly soluble” in series [7] (solvent 2-Ethly-1-butanol); “Sparingly soluble” in series [7] (solvent Acetonitrile); “Slightly soluble” in series [7] (solvent Anisole); “Soluble” in series [7] (solvent Dimethyl sulfoxide); “Sparingly soluble” in series [7] (solvent Ethyl butyl ketone); “Slightly soluble” in series [7] (solvent Ethyl sulfoxide). Further, the USP classification result in series [7] (solvent Methanol) is on record as “Soluble”; in series [7] (setting [8]) it was “Slightly soluble”; in series [7] (solvent Water), “Practically insoluble”; in series [7] (solvent n-Heptane), “Practically insoluble”. Moreover, in series [6] (listed as amorphous solid), the “Stability of the polymorphic form” value is given as “converted into a new polymorphic form: Crystal Form E”.
